In patent publication US20130296344A1, “CHROMENE DERIVATIVES AND THEIR ANALOGA AS WNT PATHWAY ANTAGONISTS” (Ruprecht-Karls-Universitat Heidelberg, priority 2010, published 2013) one finds IC50 data, which are given here for 14 molecules.

One data set has as its system Wnt pathway (Wnt1/Frzd8). The data set is described as follows: Wnt signaling pathway reporter gene assay (6xTCF-luciferase, Wnt1/Frizzled 8/LRP6 stimulated Hek293T cells). The data set is classed as cell-based, mouse (Wnt1, human (LRP6). From the text: To screen for small-molecule modulators of the Wnt signaling pathway, a reporter gene based assay describing the modulation of the TCF4 transcription factor was used. […]

For data set [1], the system named is HCT116 colon carcinoma cells. The data set is described as follows: Antiproliferative activity against HCT116 colon carcinoma cells (nuclei count). The data set is classed as cell-based, human. As for the experimental part:
(§1) For examination of cell line-specific cytotoxicity, compounds were applied to human colorectal cancer cells (HCT116, denoted (1); SW480, denoted (2); Dld-1, denoted (3)) and human fibroblasts (HS-68, denoted (4)), cultured in Mc Coy's ((1)) and Dulbecco's Modified Eagles Medium ((2)-(4)), supplemented with 10% ((1)-(3)) and 20% ((4)) fetal calf serum and 1% penicillin/streptomycin. Cells were grown in T75 flasks at 37° C., 5% CO2 and trypsinized when 60-80% confluent by adding 2 ml of 0.25% Trypsin-EDTA (ethylenediaminetetraacetic acid) solution. Cells were then re-suspended into culture medium yielding approx. 750 cells, suspended in 45 microl medium, were plated into each well of a black 384-well plate for fluorescence imaging experiments. 24-36 hr later 5 microl compound solution (100 microM compound dissolved in ultra pure water containing 1% DMSO (dimethylsulfoxide)), were added to achieve a final concentration of 10 microM and were incubated for at least 72 hr. Compound incubation was terminated by (a) fixation and (b) permeabilisation of cells, followed by (c) fluorescence labeling of cell nuclei for cytometric quantification or by immunocytochemistry for microscopic evaluation of cell morphology. […] Solutions were incubated for 15 (a,b) and 30 min (c) in the dark at room temperature. Cells were washed twice between each step with 30 microl PBS. The assay system was miniaturized and adapted to automated workflow using liquid-handling robotics.
(§2) Cell line-specific cytotoxicity was quantified by counting the number of Hoechst labeled nuclei per well of a 384-well plate using a plate cytometer. Data obtained with the cytometer was analysed using standard data analysis software.
(§3) The examination of the antiproliferative activity against human colon carcinoma cells Dld1, HCT116 and SW480 was carried out in analogy to the procedure carried out for HS68. The respective compound applied in increasing concentrations yielding final concentrations per well of 5 nM-90 microM.

Data set [2] deals with Dld1 colon carcinoma cells. The data set is described as follows: Antiproliferative activity against Dld1 colon carcinoma cells (nuclei count). In kind it is cell-based, human. As for the experimental part: as §1, §2, §3
Data set [3] has as its system SW480 colon carcinoma cells. The data set is described as follows: Antiproliferative activity against SW480 colon carcinoma cells (nuclei count). The data set is classed as cell-based. The note with it: Homo sapiens, 5 nM-90 microM. The method, then:
as §1, §2, §3

Data set [4] in a line: Cytotoxicity in HepG2 (CellTiterGlo). As to conditions: human, HepG2 cells, 24 h after compound addition, 5 nM-100 microM, read-out: HepG2 IC50 (cytotoxic activity). The data set is classed as cell-based. The method, then: (§4) For examination of cytotoxicity in these cancer cell lines the commercial available CellTiterGlo® Reagent (Promega, USA) was used according to the manufactor. Compounds were applied to Hek293T (denoted (a)) or HepG2 (denoted (b)), cultured in Dulbecco's Modified Eagles Medium, supplemented with 10% fetal calf serum and 1% penicillin/streptomycin. Cells were grown in T75 flasks at 37° C., 5% CO2 and trypsinized when 60-80% confluent by adding 2 ml of 0.25% Trypsin-EDTA solution. Cells were then re-suspended into culture medium yielding approx. 4000 cells (a) or 4500 cells (b), suspended in 30 microl medium. 48 h after cell seeding, compounds were added to yield the desired final concentrations. 24 h after compound addition cytotoxicity was evaluated. For this purpose the media was removed and CellTiterGlo® was added according to the manufactors manual. In this assay the luciferase emission readout is directly correlated with the cellular amount of ATP, low luciferase emission thus is reflecting cytotoxicity of a compound.

The nature of data set [5]: Cytotoxicity in Hek293T (CellTiterGlo). In kind it is cell-based. As to conditions: human, Hek293T cells, 24 h after compound addition, 5 nM-100 microM, read-out: Hek293T IC50 (cytotoxic activity). The method, then: as §4
Data set [6] deals with human fibroblasts (HS-68). The data set is described as follows: Cell line specific cytotoxicity, normal cells HS68 (nuclei count). In kind it is cell-based. The note with it: at least 72 hr incubation, Hoechst nuclei count, read-out: HS68 IC50 (influence on normal cells). As for the experimental part: as §1, §2
Identified hits were further evaluated by visual inspection of fluorescence micrographs obtained from imaging using a conventional fluorescence microscope.

Where [7] appears, read: Homo sapiens, HEK-293T, Hek293T, 6xTCF-luciferase reporter, 24 h incubation, 5 nM-100 microM, read-out: Wnt1/Frzd8 IC50 (Wnt pathway inhibitory activity).
[8] abbreviates: Homo sapiens, HCT-116, colon carcinoma cells, 5 nM-90 microM, nuclei count, read-out: HCT116 IC50.
Setting [9] is: Homo sapiens, DLD-1, colon carcinoma cells, 5 nM-90 microM, nuclei count, read-out: Dld1 IC50.
Where [10] appears, read: Table 7, racemate vs enantiomers, procedure of example 54, read-out: IC50 against Wnt-Pathway.
[11] abbreviates: Table 7, racemate vs enantiomers, procedure of example 56, read-out: IC50 against colon cancer cell lines HCT 116.
The mark [12] stands for this setting: Table 7, racemate vs enantiomers, procedure of example 56, read-out: IC50 against colon cancer cell lines DLDl.
[13] abbreviates: Homo sapiens, HEK-293T, 24 h, Hek293T, 6xTCF-luciferase reporter, 24 h incubation, 5 nM-100 microM, read-out: Wnt1/Frzd8 IC50 (Wnt pathway inhibitory activity).

pIC50: −log10 of the molar value. Like-named read-outs stand apart in the source and are kept apart here. Some results are limits rather than exact numbers.

As to `COc1cc(C2C(C#N)=C(N)Oc3c2ccc2ccc(C)nc32)cc(Br)c1OC` (stereo not drawn) [(16), 3-Amino-1-(3-bromo-4,5-dimethoxy-phenyl)-6-methyl-1H-4-oxa-5-aza-phenanthrene-2-carbonitrile], the pIC50 in the data set with Wnt pathway (Wnt1/Frzd8) (setting [7]) was 5.95; in data set [1] (setting [8]), 5.48; in data set [2] (setting [9]), 5.54; in data set [3], 5.50; in data set [6], 5.31. Also, the IC50 at 24 h in data set [4] and in data set [5] was > 90000 nM throughout.
With `COc1cc(C2C(C#N)=C(N)Oc3c2ccc2ccc(N)nc32)cc(Br)c1OC` (single isomer, unassigned) [(20)-2, 3,6-Diamino-1-(3-bromo-4,5-dimethoxy-phenyl)-1H-4-oxa-5-aza-phenanthrene-2-carbonitrile], the pIC50 was 6.48 in the data set on Wnt pathway (Wnt1/Frzd8) (setting [10]), 6.45 in data set [1] (setting [11]) and 6.45 in data set [2] (setting [12]).
Take `C=CCOc1c(Br)cc(C2C(C(=O)OCC)=C(N)Oc3c2ccc2ccccc32)cc1OC` (stereo not drawn) [(4), 4-(4-Allyloxy-3-bromo-5-methoxy-phenyl)-2-amino-4H-benzo[h]chromene-3-carboxylic acid ethyl ester]: the pIC50 with Wnt pathway (Wnt1/Frzd8) (setting [13]) was 7.07; in data set [1] (setting [8]), 6.84; in data set [2] (setting [9]) it was 6.77; in data set [3], 6.48; in data set [6] it was 6.67. Further, the IC50 at 24 h in data set [4] and in data set [5] was > 90000 nM each time.
On to `COc1cc(C2C(C#N)=C(N)Oc3c2ccc2ccc(N)nc32)cc(Br)c1OC` (single isomer, unassigned) [(20)-1, 3,6-Diamino-1-(3-bromo-4,5-dimethoxy-phenyl)-1H-4-oxa-5-aza-phenanthrene-2-carbonitrile], for which the pIC50 (in the data set on Wnt pathway (Wnt1/Frzd8) (setting [10]); in data set [1] (setting [11]); in data set [2] (setting [12])) was > 8.30 each time.
As for `N#CC1=C(N)Oc2cc3ccccc3cc2C1c1cc(F)c(F)c(F)c1` (stereo not drawn) [(28), 2-amino-4-(3,4,5-trifluoro-phenyl)-4H-benzo[g]chromene-3-carbonitrile], the pIC50 in the data set with Wnt pathway (Wnt1/Frzd8) (setting [7]) is 5.62; in data set [1] (setting [8]) it was 4.52; in data set [2] (setting [9]), 4.66; in data set [3] it was 4.27; in data set [6], < 4.05. Besides, the half-maximal inhibitory concentration (IC50) at 24 h in data set [4] was 31700 nM; in data set [5], > 90000 nM.
For `C=CCOc1c(Br)cc(C2C(C(=O)OCC)=C(N)Oc3cc4c(cc32)OCO4)cc1OC` (stereo not drawn) [(42), 8-(4-Allyloxy-3-bromo-5-methoxy-phenyl)-6-amino-8H-[1,3]dioxolo[4,5-g]chromene-7-carboxylic acid ethyl ester], the pIC50 in the data set with Wnt pathway (Wnt1/Frzd8) (setting [13]) is 7.26; in data set [1] (setting [8]), 6.60; in data set [2] (setting [9]), 6.53; in data set [3] it was 6.46; in data set [6] it was 6.33. Besides, the half-maximal inhibitory concentration (IC50) at 24 h in data set [4] and in data set [5] was > 90000 nM in each case.
As to `COc1cc(C2C(C#N)=C(N)Oc3c2ccc2ccc(N)nc32)cc(Br)c1OC` (racemic) [(20), 3,6-Diamino-1-(3-bromo-4,5-dimethoxy-phenyl)-1H-4-oxa-5-aza-phenanthrene-2-carbonitrile], the pIC50 was 8.22 in the data set with Wnt pathway (Wnt1/Frzd8) (setting [7]); 8.30 with Wnt pathway (Wnt1/Frzd8) (Homo sapiens, HEK-293T, Table 7, racemate vs enantiomers, procedure of example 54, read-out: IC50 against Wnt-Pathway); 8.30 in data set [1] (Homo sapiens, HCT-116, Table 7, racemate vs enantiomers, procedure of example 56, read-out: IC50 against colon cancer cell lines HCT 116); 7.82 in data set [1] (setting [8]); 8.00 in data set [2] (Homo sapiens, DLD-1, Table 7, racemate vs enantiomers, procedure of example 56, read-out: IC50 against colon cancer cell lines DLDl); 7.85 in data set [2] (setting [9]). The half-maximal inhibitory concentration (IC50) at 24 h in data set [4] is 37000 nM; in data set [5], > 90000 nM.
Regarding `N#CC1=C(N)Oc2cc3c(cc2C1c1cc(F)c(F)c(F)c1)OCO3` (stereo not drawn) [(39), 6-Amino-8-(3,4,5-trifluoro-phenyl)-8H-[1,3]dioxolo[4,5-g]chromene-7-carbonitrile], the pIC50 in the data set with Wnt pathway (Wnt1/Frzd8) (setting [7]) was 5.86; in data set [1] (setting [8]), 6.18; in data set [2] (setting [9]), 5.96; in data set [3] it was 5.57. In addition, the 50% inhibitory concentration (IC50) at 24 h in data set [4] and in data set [5] was > 90000 nM each time.
In the case of `COc1cc(C2C(C#N)=C(N(C)C)Oc3cc4ccccc4cc32)cc(Br)c1OC` (stereo not drawn) [(31), 2-Dimethylamino-4-(3-bromo-4,5-dimethoxy-phenyl)-4H-benzo[g]chromene-3-carbonitrile], the pIC50 is 5.71 in the data set with Wnt pathway (Wnt1/Frzd8) (setting [13]); 5.00 in data set [1] (setting [8]); 5.34 in data set [2] (setting [9]); 4.92 in data set [3]; < 4.05 in data set [6]. The half-inhibitory concentration (IC50) at 24 h in data set [4] and in data set [5] was > 90000 nM in each case.
With `COc1cc(C2C(C#N)=C(N)Oc3cc4ccccc4cc32)cc(Br)c1OC` (stereo not drawn) [(30), 2-Amino-4-(3-bromo-4,5-dimethoxy-phenyl)-4H-benzo[g]chromene-3-carbonitrile], the pIC50 with Wnt pathway (Wnt1/Frzd8) (setting [7]) is 6.16; in data set [1] (setting [8]), 5.54; in data set [2] (setting [9]) it was 5.05; in data set [3], 5.12; in data set [6], 5.29. Further, the half-inhibitory concentration (IC50) at 24 h in data set [4] and in data set [5] was > 90000 nM in each case.
As for `COc1cc(C2C(C#N)=C(N)Oc3c2c(O)nc2ccccc32)cc(Br)c1OC` (stereo not drawn) [(17), 2-Amino-4-(3-bromo-4,5-dimethoxy-phenyl)-5-hydroxy-4H-pyrano[3,2-c]quinoline-3-carbonitrile], the pIC50 in the data set on Wnt pathway (Wnt1/Frzd8) (setting [7]) is 7.70; in data set [1] (setting [8]), 6.52; in data set [2] (setting [9]), 6.19; in data set [3], 6.24. In addition, the half-inhibitory concentration (IC50) at 24 h in data set [4] and in data set [5] was > 90000 nM throughout.
For `N#CC1=C(N)Oc2cc3ccccc3cc2C1c1cc(F)c(N2CCCCC2)c(F)c1` (stereo not drawn) [(29), 2-amino-4-(3,5-difluoro-4-piperidin-1-yl-phenyl)-4H-benzo[g]chromene-3-carbonitrile], the pIC50 in the data set on Wnt pathway (Wnt1/Frzd8) (setting [7]) was 5.19; in data set [1] (setting [8]), < 4.05; in data set [2] (setting [9]) it was < 4.05; in data set [3], 4.41; in data set [6] it was < 4.05. Besides, the half-inhibitory concentration (IC50) at 24 h in data set [4] was 42500 nM; in data set [5], > 90000 nM.
Consider `COc1cc(C2C(C#N)=C(N)Oc3c2ccc2ccccc32)cc(Br)c1OC` (stereo not drawn) [(1), 2-Amino-4-(3-bromo-4,5-dimethoxy-phenyl)-4H-benzo[h]chromene-3-carbonitrile], for which the pIC50 was 7.34 in the data set on Wnt pathway (Wnt1/Frzd8) (setting [7]); 7.31 in data set [1] (setting [8]); 7.42 in data set [2] (setting [9]); 7.25 in data set [3]; 7.06 in data set [6]. The IC50 at 24 h in data set [4] and in data set [5] was > 90000 nM each time.
Turning to `COc1cc(C2C(C#N)=C(N)Oc3c2ccc2ccc(O)nc32)cc(Br)c1OC` (stereo not drawn) [(19), 3-Amino-1-(3-bromo-4,5-dimethoxy-phenyl)-6-hydroxy-1H-4-oxa-5-aza-phenanthrene-2-carbonitrile], the pIC50 in the data set with Wnt pathway (Wnt1/Frzd8) (setting [7]) is 8.52; in data set [1] (setting [8]), 7.77; in data set [2] (setting [9]) it was 7.68. Also, the IC50 at 24 h in data set [4] and in data set [5] was > 90000 nM throughout.
